For eight molecules, GI50 and TGI results are on record in PubChem BioAssay (NCI).

Test systems include MDA-MB-231 breast; SN12C renal; SF-539 CNS; MALME-3M melanoma; UACC-62 melanoma; HL-60(TB) leukemia; TK-10 renal; HOP-62 NSCLC; RPMI-8226 leukemia; HS 578T breast.
Test in all cases: NCI tumour cell line growth inhibition, 48 h

Several values for one entry are separate records, joined by “and”; a condition that tells them apart may be missing. Equal values may be shown once.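 These data come from cells grown in 96-well plates and exposed to compound for 48 hours at five concentrations. At the GI50, growth is halved. TGI: concentration producing complete growth inhibition.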

Consider `CC(C)(C)c1ccc(NC(=O)c2cc(=O)c3ccccc3[nH]2)c(C(C)(C)C)c1O`, for which the GI50 is 3.29 µM with MDA-MB-231 breast; 9.81 µM with SN12C renal; 13 µM in the assay with SF-539 CNS; 12.1 µM in the assay on MALME-3M melanoma; 9.65 µM in the assay on UACC-62 melanoma; 4.27 µM in the assay with HL-60(TB) leukemia. Moreover, the GI50 was 14.5 µM with TK-10 renal, 12.5 µM with HOP-62 NSCLC, 2.89 µM in the assay on RPMI-8226 leukemia and 6.46 µM in the assay with HS 578T breast. Moreover, the TGI amounted to 13.9 µM in the assay with MDA-MB-231 breast; 24.4 µM with SN12C renal; 26.3 µM in the assay with SF-539 CNS; 26.3 µM in the assay with MALME-3M melanoma; 22.9 µM in the assay on UACC-62 melanoma; 17.2 µM with HL-60(TB) leukemia. The TGI worked out at 27.9 µM in the assay with TK-10 renal, 25.3 µM with HOP-62 NSCLC, 14.1 µM in the assay with RPMI-8226 leukemia and 39 µM in the assay on HS 578T breast.
In the case of `Cc1ccc2nc(NC(=O)CSC(=S)N3CCN(Cc4ccccc4)CC3)sc2c1`, the GI50 with MDA-MB-231 breast was above 100 µM; in the assay with SN12C renal, above 100 µM; in the assay with SF-539 CNS, above 100 µM; with MALME-3M melanoma, above 100 µM; in the assay with UACC-62 melanoma, above 100 µM; in the assay with HL-60(TB) leukemia, above 83.6 µM. For the same molecule, the GI50 is above 100 µM in the assay on TK-10 renal, above 100 µM with HOP-62 NSCLC, 75.9 µM in the assay with RPMI-8226 leukemia and above 100 µM with HS 578T breast. Further, the TGI in the assay with MDA-MB-231 breast, with SN12C renal, in the assay with SF-539 CNS, in the assay with MALME-3M melanoma, in the assay on UACC-62 melanoma and in the assay on HL-60(TB) leukemia was above 100 µM throughout. Also, the TGI in the assay with TK-10 renal, in the assay on HOP-62 NSCLC, in the assay on RPMI-8226 leukemia and in the assay with HS 578T breast was above 100 µM each time.
`CN(C)c1ccc2c(SCC(=O)OCC(=O)[C@@]3(O)CC[C@H]4[C@@H]5CCC6=CC(=O)C=C[C@]6(C)[C@H]5C(=O)C[C@@]43C)c3ccc(N(C)C)cc3nc2c1`: the TGI in the assay on MDA-MB-231 breast is above 93.8 µM; with SN12C renal, above 59.3 µM; in the assay on SF-539 CNS it was above 56.3 µM; with MALME-3M melanoma, above 100 µM; in the assay with UACC-62 melanoma it was 54.6 µM; in the assay with HL-60(TB) leukemia, above 20.5 µM. For the same molecule, the TGI in the assay with TK-10 renal was 48.8 µM; in the assay on HOP-62 NSCLC it was above 100 µM; with RPMI-8226 leukemia, 82.5 µM; in the assay on HS 578T breast, above 100 µM.
As for `Cc1cc(C)c(S(=O)(=O)Oc2ccccc2[N+](=O)[O-])c(C)c1`, the GI50 in the assay with MDA-MB-231 breast is 3.7 µM; with SN12C renal, 14.7 µM; in the assay on SF-539 CNS it was 2.16 µM; with MALME-3M melanoma, 1.26 µM; in the assay with UACC-62 melanoma, 2.46 µM; in the assay with HL-60(TB) leukemia, 0.367 µM. Also, the GI50 with TK-10 renal was 4.86 µM; in the assay with HOP-62 NSCLC, 3.33 µM; with RPMI-8226 leukemia, 2.54 µM; in the assay on HS 578T breast, 1.42 µM. Also, the TGI was above 100 µM with MDA-MB-231 breast; above 100 µM with SN12C renal; above 23.1 µM in the assay with SF-539 CNS; above 100 µM with MALME-3M melanoma; above 100 µM in the assay on UACC-62 melanoma; 2.5 µM with HL-60(TB) leukemia. Further, the TGI was above 100 µM with TK-10 renal, above 100 µM with HOP-62 NSCLC, above 100 µM with RPMI-8226 leukemia and 5.24 µM in the assay on HS 578T breast.
As for `O=C1c2ccccc2C(=O)c2c1c(NCCNCCO)c1cc[nH]c1c2NCCNCCO`, the GI50 with MDA-MB-231 breast is 4.15 µM; in the assay on SN12C renal it was 0.354 µM; in the assay on SF-539 CNS it was 1.25 µM; in the assay on MALME-3M melanoma, 1.8 µM; in the assay with UACC-62 melanoma, 1.48 µM; in the assay on HL-60(TB) leukemia, 2.9 µM. Further, the GI50 was 6.04 µM with TK-10 renal, 2.6 µM with HOP-62 NSCLC, 13.9 µM with RPMI-8226 leukemia and 1.93 µM in the assay with HS 578T breast. In addition, the TGI in the assay on MDA-MB-231 breast was 18.9 µM; with SN12C renal, 2.67 µM; in the assay on SF-539 CNS, 14.5 µM; with MALME-3M melanoma it was 5.16 µM; with HL-60(TB) leukemia it was above 21 µM; in the assay with TK-10 renal, 44.9 µM. Moreover, the TGI in the assay on HOP-62 NSCLC was above 22.2 µM; with RPMI-8226 leukemia, 47.8 µM; in the assay on HS 578T breast, 11.1 µM.
As to `CN([N-]C(=O)CC(=O)[N-]N(C)C(=S)c1ccccc1)C(=S)c1ccccc1.[Cu+2]`, the GI50 is 0.0221 µM with MDA-MB-231 breast; 0.124 µM with SN12C renal; 0.142 µM in the assay on SF-539 CNS; 0.0194 µM in the assay with MALME-3M melanoma; 0.0332 µM in the assay with UACC-62 melanoma; 0.0663 µM with HL-60(TB) leukemia. For the same molecule, the GI50 in the assay with TK-10 renal was 0.0461 µM; in the assay with HOP-62 NSCLC, 0.134 µM; in the assay on RPMI-8226 leukemia it was 0.0284 µM; in the assay on HS 578T breast it was 0.0851 µM. The TGI amounted to 0.132 µM in the assay on MDA-MB-231 breast; 0.253 µM in the assay on SN12C renal; 0.275 µM with SF-539 CNS; 0.0585 µM in the assay with MALME-3M melanoma; 0.149 µM with UACC-62 melanoma; 0.174 µM with TK-10 renal. The figures for the TGI with HOP-62 NSCLC, in the assay on RPMI-8226 leukemia and in the assay with HS 578T breast were 0.275 µM, 0.224 µM and 0.619 µM, respectively.
As for `CCCCCCCCCCCCCCCC[N+](C)(C)C`, the GI50 with MDA-MB-231 breast was 0.169 µM and 1.38 µM; in the assay with SN12C renal, 0.285 µM and 2.06 µM; with SF-539 CNS, 1.49 µM; with MALME-3M melanoma it was 1.8 µM; with UACC-62 melanoma, 0.258 µM and 1.43 µM; in the assay on HL-60(TB) leukemia, 0.148 µM and 0.371 µM. For the same molecule, the GI50 is 1.11 µM in the assay on TK-10 renal; 0.198 µM and 1.33 µM in the assay with HOP-62 NSCLC; 0.142 µM in the assay with RPMI-8226 leukemia; 0.269 µM and 1.82 µM in the assay on HS 578T breast. The TGI with MDA-MB-231 breast was 0.405 µM and 3.55 µM; in the assay on SN12C renal it was 1.07 µM and 4.56 µM; in the assay with SF-539 CNS it was 3.18 µM; in the assay with MALME-3M melanoma, 5.08 µM; with UACC-62 melanoma it was 1.16 µM and 3.38 µM; in the assay with HL-60(TB) leukemia, 0.336 µM and 1.81 µM. Besides, the TGI with TK-10 renal was 2.81 µM; with HOP-62 NSCLC, 0.54 µM and 3.07 µM; in the assay on RPMI-8226 leukemia it was 0.792 µM; in the assay on HS 578T breast it was 0.984 µM and 5.46 µM.
As for `CN1CCN(c2ccc(NC3=C(Cl)C(=O)c4ncccc4C3=O)cc2C(F)(F)F)CC1`, the GI50 with MDA-MB-231 breast is 1.69 µM; in the assay on SN12C renal it was 1.79 µM; in the assay on SF-539 CNS it was 1.74 µM; in the assay with MALME-3M melanoma, 1.46 µM; in the assay on UACC-62 melanoma, 1.88 µM; in the assay with HL-60(TB) leukemia it was 1.79 µM. The GI50 with TK-10 renal was 1.92 µM; with HOP-62 NSCLC, 17.4 µM; with RPMI-8226 leukemia it was 0.874 µM; with HS 578T breast, 3.31 µM. In addition, the TGI in the assay with MDA-MB-231 breast was 5.02 µM; in the assay on SN12C renal, 3.31 µM; in the assay on SF-539 CNS it was 3.53 µM; in the assay on MALME-3M melanoma it was 2.83 µM; with UACC-62 melanoma it was 3.81 µM; in the assay on HL-60(TB) leukemia it was 4.73 µM. The TGI turned out to be 3.45 µM in the assay on TK-10 renal, 37.1 µM in the assay with HOP-62 NSCLC, 6.66 µM in the assay with RPMI-8226 leukemia and 42.3 µM in the assay with HS 578T breast.
